Source: publication PMC6429275, “Isothiocyanates and Glucosinolates from Sisymbrium officinale (L.) Scop. (“the Singers’ Plant”): Isolation and in Vitro Assays on the Somatosensory and Pain Receptor TRPA1 Channel” (Molecules, 2019)
“And” between values parts separate entries of the source, which are not always exact repeats. Equal entries are not always repeated. Where two headings read alike, the source gives them in different places.

How the values were obtained:
rat TRPA1 [1] = target: T1, rat TRPA1 (Rattus norvegicus, UniProt Q6RI86); test: rat TRPA1-mediated elevation of intracellular Ca2+ (Fluo-4) in transfected HEK-293 cells, agonist mode; assay type: cell-based; details: for Efficacy (%AITC 100μM): TRPA1, percentage of the effect on [Ca2+]i observed with 100 μM allylisothiocyanate (AITC); for Efficacy (%AITC 100μM) / EC50: rTRPA1-HEK-293 cells; for activity on TRPA1 channel (result in words): in vitro assays on TRPA1; for EC50: Potency EC50, TRPA1, concentration producing half-maximal increase in [Ca2+]i
T1 construct: expressed in transfected cells; host or cells: HEK-293 cells, stably transfected
Procedure: (§1) Compound effects on intracellular Ca^2+ concentration ([Ca^2+]i) were determined using the selective intracellular fluorescent probe Fluo-4. Assays of the rat TRPA1-mediated elevation of intracellular Ca^2+ in transfected HEK-293 cells were performed as described. Briefly, human embryonic kidney (HEK-293) cells (stably transfected with rat TRPA1 or not transfected) were cultured in EMEM + 2 mM Glutamine + 1 % non-essential amino acids (NEAA) + 10 % FBS and maintained at 37 °C with 5 % CO2. On the day of the experiment, the cells were loaded with Fluo-4 AM (4 μM) for 1 h at room temperature, rinsed and resuspended in Tyrode’s solution (145 mM NaCl, 2.5 mM KCl, 1.5 mM CaCl2, 1.2 mM MgCl2, 10 mM d-glucose, and 10 mM HEPES, pH 7.4), and finally transferred to a quartz cuvette of a spectrofluorimeter (Perkin-Elmer LS50B, Perkin Elmer Inc, Buckinghamshire, UK); λEX = 488 nm, λEM = 516 nm) equipped with a PTP-1 Fluorescence Peltier System (PerkinElmer Life and Analytical Sciences, Waltham, MA, USA) under continuous stirring. Cell fluorescence before and after the addition of various concentrations of test compounds was measured, normalizing the effects against the response to ionomycin (4 µM). The values of the effect on [Ca^2+]i in not-transfected HEK-293 cells were used as a baseline and subtracted from the values obtained from transfected cells. Agonist efficacy was expressed as a percentage of the effect on [Ca^2+]i observed with 100 μM allylisothiocyanate (AITC). The potency of the compounds (EC50 values) was determined as the concentration required to produce half-maximal increases in [Ca^2+]i. Antagonist/desensitizing behavior as evaluated against TRPA1 agonist AITC 100 μM by adding the compound directly into the quartz cuvette 5 min before the stimulation of cells with the agonist. IC50 is expressed as the concentration exerting a half-maximal inhibition of an agonist effect, taking as 100% the effect on [Ca^2+]i exerted by the agonist alone. Dose–response curves are fitted by a sigmoidal regression with a variable slope. Curve fitting and parameter estimation were performed with a GraphPad Prism (GraphPad Software Inc., San Diego, CA). Three independent experiments were done for each determination; all determinations were performed at least in triplicate. The time-course spectra showing the increase of intracellular Ca^2+ upon application of the compounds are available in Supplementary Material (S10).

rat TRPA1 [2] = target: T1, rat TRPA1; test: Antagonist/desensitizing behavior against AITC 100 μM in rTRPA1-HEK-293 cells (5 min pre-incubation); assay type: cell-based
Procedure: as §1

[3] = system: not-transfected HEK cells; test: Intracellular Ca2+ elevation in not-transfected HEK-293 cells; assay type: cell-based, human; details: compound at 100 μM
Procedure: Compound effects on intracellular Ca^2+ concentration ([Ca^2+]i) were determined using the selective intracellular fluorescent probe Fluo-4. Assays of the rat TRPA1-mediated elevation of intracellular Ca^2+ in transfected HEK-293 cells were performed as described. Briefly, human embryonic kidney (HEK-293) cells (stably transfected with rat TRPA1 or not transfected) were cultured in EMEM + 2 mM Glutamine + 1 % non-essential amino acids (NEAA) + 10 % FBS and maintained at 37 °C with 5 % CO2. On the day of the experiment, the cells were loaded with Fluo-4 AM (4 μM) for 1 h at room temperature, rinsed and resuspended in Tyrode’s solution (145 mM NaCl, 2.5 mM KCl, 1.5 mM CaCl2, 1.2 mM MgCl2, 10 mM d-glucose, and 10 mM HEPES, pH 7.4), and finally transferred to a quartz cuvette of a spectrofluorimeter (Perkin-Elmer LS50B, Perkin Elmer Inc, Buckinghamshire, UK); λEX = 488 nm, λEM = 516 nm) equipped with a PTP-1 Fluorescence Peltier System (PerkinElmer Life and Analytical Sciences, Waltham, MA, USA) under continuous stirring. Cell fluorescence before and after the addition of various concentrations of test compounds was measured, normalizing the effects against the response to ionomycin (4 µM). […] Agonist efficacy was expressed as a percentage of the effect on [Ca^2+]i observed with 100 μM allylisothiocyanate (AITC). […]

T1 sequence (Q6RI86 whole entry): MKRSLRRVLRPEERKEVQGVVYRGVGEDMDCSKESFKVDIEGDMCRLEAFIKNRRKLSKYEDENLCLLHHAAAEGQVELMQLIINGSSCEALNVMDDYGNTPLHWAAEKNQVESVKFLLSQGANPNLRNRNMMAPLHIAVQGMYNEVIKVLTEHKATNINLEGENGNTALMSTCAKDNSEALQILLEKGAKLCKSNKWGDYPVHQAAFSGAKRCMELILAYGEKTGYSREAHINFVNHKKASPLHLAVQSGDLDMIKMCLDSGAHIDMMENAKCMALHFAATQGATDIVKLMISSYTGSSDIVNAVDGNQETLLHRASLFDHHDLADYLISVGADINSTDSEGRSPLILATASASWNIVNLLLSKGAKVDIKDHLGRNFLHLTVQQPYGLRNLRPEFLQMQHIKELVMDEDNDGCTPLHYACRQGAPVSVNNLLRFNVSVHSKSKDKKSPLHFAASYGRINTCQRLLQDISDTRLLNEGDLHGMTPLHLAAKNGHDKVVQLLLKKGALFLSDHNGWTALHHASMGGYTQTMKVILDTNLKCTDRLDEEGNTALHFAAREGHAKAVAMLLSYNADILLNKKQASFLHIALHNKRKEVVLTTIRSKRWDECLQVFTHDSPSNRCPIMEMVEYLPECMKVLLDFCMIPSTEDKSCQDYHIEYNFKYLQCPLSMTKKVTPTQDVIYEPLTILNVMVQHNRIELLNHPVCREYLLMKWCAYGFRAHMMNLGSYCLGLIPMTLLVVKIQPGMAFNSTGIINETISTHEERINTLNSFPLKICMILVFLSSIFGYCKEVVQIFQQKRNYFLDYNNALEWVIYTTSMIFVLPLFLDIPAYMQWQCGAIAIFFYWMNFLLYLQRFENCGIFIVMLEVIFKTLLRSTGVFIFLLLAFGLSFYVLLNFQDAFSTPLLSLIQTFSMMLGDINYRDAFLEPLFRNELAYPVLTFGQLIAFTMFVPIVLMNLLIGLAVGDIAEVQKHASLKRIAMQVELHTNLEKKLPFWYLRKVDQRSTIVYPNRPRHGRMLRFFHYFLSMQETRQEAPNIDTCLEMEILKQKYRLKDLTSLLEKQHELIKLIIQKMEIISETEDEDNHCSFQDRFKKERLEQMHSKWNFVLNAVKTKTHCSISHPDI

activity on TRPA1 channel (result in words) (rat TRPA1 [1]; listed as glucoputranjivin)	SMILES	Efficacy (%AITC 100μM) (rat TRPA1 [1])	activity on TRPA1 channel (result in words) (rat TRPA1 [1])	activity on TRPA1 channel (result in words) (rat TRPA1 [1]; listed as sinigrin)	IC50 (rat TRPA1 [2])	IC50 (rat TRPA1 [2]; compound added 5 min before stimulation with AITC 100 μM, rTRPA1-HEK-293 cells, read-out: IC50 Inhibition TRPA1 (AITC 100μM))	activity (elevation of internal Ca2+) on not-transfected HEK cells [3]	EC50 (rat TRPA1 [1])
	C=CCC(=NOS(=O)(=O)O)S[C@@H]1O[C@H](CO)[C@@H](O)[C@H](O)[C@H]1O (stereo in doubt) [Compound 5, sinigrin, reference compound]	<10%	ineffective	inactive	> 100 µM			
inactive	CC(C)/C(=N/OS(=O)(=O)O)S[C@@H]1O[C@H](CO)[C@@H](O)[C@H](O)[C@H]1O [Compound 1, glucoputranjivin]	<10%	ineffective			> 100 µM		
	CC(C)N=C=S [Compound 2, isopropylisothiocyanate]	108.8% and 108.8 ± 1.6%			10.8 ± 0.4 µM		less than 1%	5.9 ± 0.4 µM
	CCC(C)N=C=S (stereo not shown) [Compound 4, 2-butylisothiocyanate]	98.0% and 98.0 ± 1.0%			12.1 ± 0.2 µM		less than 1%	4.9 ± 0.2 µM
